{"source": "paper PMC9085577", "about": "“Discovery of a Potent and Orally Active Dual GPBAR1/CysLT1R Modulator for the Treatment of Metabolic Fatty Liver Disease” (Frontiers in Pharmacology, 2022)", "tested_on": "liver transcriptome", "assay": "AmpliSeq liver transcriptome of HFD-F mice", "type": "in vivo", "conditions": "liver, HFD-F + compound 2 vs HFD-F", "description": "C57BL/6J male mice were fed a high fat diet (HFD) containing 59 KJ% fat plus 1% cholesterol, w/o sugar (ssniff ® EF R/M acc. D12330 mod. 22,7 ME/kg) and fructose (HFD-F) in drinking water (42 g/L), or normal chow diet for 61 days. Food intake was estimated as the difference of weight between the offered and the remnant amount of food at 3-days intervals. The food was provided as pressed pellets and the residual spillage was not considered. After 7 days, HFD-F mice were randomized to receive HFD-F alone or in combination with compound 2 (30 mg/kg/day) by gavage until the end of the experiment. Doses of each agent were chosen according to previously published data. Mice were housed under controlled temperature (22°C) and photoperiods (12:12-h light/dark cycle), allowed unrestricted access to standard mouse chow and tap water. The experimental protocol was approved by the Animal Care and Use Committee of the University of Perugia and by the Italian Minister of Health and Istituto Superiore di Sanità (Italy) and was in agreement with the European guidelines for use of experimental animals (permission n. 583/2017-PR). The general health of the animals was monitored daily by the Veterinarian in the animal facility. At the day of sacrifice, fed mice were deeply anesthetized with a mixture of tiletamine hypochloride and zolazepam hypochloride/xylazine at a dose of 50/5 mg/kg and sacrificed before 12 a.m.\nHigh-quality RNA was extracted from mice livers, using the Direct-zol™ RNA MiniPrep w/Zymo-Spin™ IIC Columns (Zymo Research, Irvine, CA) according to the manufacturer’s instructions. RNA quality and quantity were assessed with the Qubit® RNA HS Assay Kit and a Qubit 3.0 fluorometer (Invitrogen, Carlsbad, CA) followed by agarose gel electrophoresis. Libraries were generated using the Ion AmpliSeq™ Transcriptome Mouse Gene Expression Core Panel and Chef-Ready Kit (Comprehensive evaluation of AmpliSeq transcriptome, a whole transcriptome RNA sequencing methodology) (Thermo Fisher Scientific, Waltham, MA). Briefly, 10 ng of RNA was reverse transcribed with SuperScript™ Vilo™ cDNA Synthesis Kit (Thermo Fisher Scientific, Waltham, MA) before library preparation on the Ion Chef™ instrument (Thermo Fisher Scientific, Waltham, MA). The resulting cDNA was amplified to prepare barcoded libraries using the Ion Code™ PCR Plate, and the Ion AmpliSeq™ Transcriptome Mouse Gene Expression Core Panel (Thermo Fisher Scientific, Waltham, MA), Chef-Ready Kit, according to the manufacturer’s instructions. Barcoded libraries were combined to a final concentration of 100 p.m., and used to prepare Template-Positive Ion Sphere™ (Thermo Fisher Scientific, Waltham, MA) Particles to load on Ion 540™ Chips, using the Ion 540™ Kit-Chef (Thermo Fisher Scientific, Waltham, MA). Sequencing was performed on an Ion S5™ Sequencer with Torrent Suite™ Software v6 (Thermo Fisher Scientific, Waltham, MA). The analyses were performed with a range of fold <−2 and >+2 and a p value <0.05, using Transcriptome Analysis Console Software (version 4.0.1), certified for AmpliSeq analysis (Thermo-Fisher). The transcriptomic data have been deposited as dataset on Mendeley data repository (reference number linking to the repository: Fiorucci, Stefano; Biagioli, Michele; Marchianò, Silvia; Di Giorgio, Cristina (2021), “Discovery of potent dual GPBAR1/CysLT1R modulator for the treatment of metabolic fatty liver disease,” Mendeley Data, V1, doi: 10.17632/6dnrk9fc72.1)."}
{"smiles": "O=C(O)c1cccc(-c2ccc(OCc3ccc4ccccc4n3)cc2)c1", "note": "[Compound 2, 4'-(quinolin-2-ylmethoxy)-[1,1′-biphenyl]-3-carboxylic acid]", "values": [{"measurement": "Gm31649 transcript Fold Change", "value": 2.82}, {"measurement": "Gm36796 transcript Fold Change", "value": -2.15}, {"measurement": "Gnat1 transcript Fold Change", "value": -2.26}, {"measurement": "Gngt1 transcript Fold Change", "value": -2.64}, {"measurement": "Gpnmb transcript Fold Change", "value": -3.95}, {"measurement": "Hnf4aos transcript Fold Change", "value": 2.36}, {"measurement": "Hnrnpa0 transcript Fold Change", "value": -2.58}, {"measurement": "Hspa5 transcript Fold Change", "value": -2.37}, {"measurement": "Igip transcript Fold Change", "value": -2.32}, {"measurement": "Il1b transcript Fold Change", "value": -2.2}, {"measurement": "Il1rn transcript Fold Change", "value": -2.12}, {"measurement": "Insig2 transcript Fold Change", "value": -3.18}, {"measurement": "Itgam transcript Fold Change", "value": -5.37}, {"measurement": "Kif20a transcript Fold Change", "value": -2.25}, {"measurement": "LOC108167447 transcript Fold Change", "value": 2.42}, {"measurement": "LOC108168323 transcript Fold Change", "value": -2.25}, {"measurement": "Lactb2 transcript Fold Change", "value": -2.04}, {"measurement": "Ly6d transcript Fold Change", "value": -4.62}, {"measurement": "Meg3 transcript Fold Change", "value": 2.02}, {"measurement": "Mettl9 transcript Fold Change", "value": -2.22}, {"measurement": "Mki67 transcript Fold Change", "value": -2.36}, {"measurement": "Mogat1 transcript Fold Change", "value": -2.13}, {"measurement": "Mthfd2 transcript Fold Change", "value": -2.03}, {"measurement": "Mvd transcript Fold Change", "value": -2.06}, {"measurement": "Nat8 transcript Fold Change", "value": 2.38}, {"measurement": "Neat1 transcript Fold Change", "value": -2.87}, {"measurement": "Npas2 transcript Fold Change", "value": -3.98}, {"measurement": "Nr4a1 transcript Fold Change", "value": -2.25}, {"measurement": "Nrep transcript Fold Change", "value": 2.34}, {"measurement": "Nuak2 transcript Fold Change", "value": 2.15}, {"measurement": "Pcbp1 transcript Fold Change", "value": -4.32}, {"measurement": "Pcp4l1 transcript Fold Change", "value": 2.55}, {"measurement": "Pdilt transcript Fold Change", "value": 3.33}, {"measurement": "Pdpn transcript Fold Change", "value": -2.04}, {"measurement": "Per3 transcript Fold Change", "value": 4.98}, {"measurement": "Plau transcript Fold Change", "value": -4.02}, {"measurement": "Plaur transcript Fold Change", "value": -2.77}, {"measurement": "Pld6 transcript Fold Change", "value": 2.03}, {"measurement": "Plekhg3 transcript Fold Change", "value": 2.05}, {"measurement": "Plxnc1 transcript Fold Change", "value": -2.05}, {"measurement": "Pnpla3 transcript Fold Change", "value": -2.9}, {"measurement": "Podn transcript Fold Change", "value": 2.29}, {"measurement": "Ppp1r3c transcript Fold Change", "value": -2.05}, {"measurement": "Prox1 transcript Fold Change", "value": 2.06}, {"measurement": "Psat1 transcript Fold Change", "value": -2.69}, {"measurement": "Ptgs2 transcript Fold Change", "value": -4.87}, {"measurement": "Raet1e transcript Fold Change", "value": -2.18}, {"measurement": "Raet1d transcript Fold Change", "value": -2.32}, {"measurement": "Ralbp1 transcript Fold Change", "value": 3.61}, {"measurement": "Rhob transcript Fold Change", "value": -3.06}, {"measurement": "Rrs1 transcript Fold Change", "value": -2.27}, {"measurement": "Saa4 transcript Fold Change", "value": 5.34}, {"measurement": "Sart3 transcript Fold Change", "value": 2.37}, {"measurement": "Sbk1 transcript Fold Change", "value": 2.54}, {"measurement": "Sec11c transcript Fold Change", "value": -2.18}, {"measurement": "Senp1 transcript Fold Change", "value": 3.54}, {"measurement": "Serpina7 transcript Fold Change", "value": -2.84}, {"measurement": "Serpine1 transcript Fold Change", "value": -3.49}, {"measurement": "Slc16a1 transcript Fold Change", "value": -2.37}, {"measurement": "Slc17a8 transcript Fold Change", "value": -2.06}, {"measurement": "Slc39a8 transcript Fold Change", "value": -2.02}, {"measurement": "Slc40a1 transcript Fold Change", "value": -2.28}, {"measurement": "Slc46a3 transcript Fold Change", "value": 2.23}, {"measurement": "Spon2 transcript Fold Change", "value": -3.19}, {"measurement": "Sqle transcript Fold Change", "value": -2.72}, {"measurement": "Stfa3 transcript Fold Change", "value": -9.86}, {"measurement": "Taok3 transcript Fold Change", "value": 2.06}, {"measurement": "Tk1 transcript Fold Change", "value": 2.3}, {"measurement": "Tmx1 transcript Fold Change", "value": 2.28}, {"measurement": "Tnf transcript Fold Change", "value": -2.39}, {"measurement": "Tnfrsf23 transcript Fold Change", "value": -2.38}, {"measurement": "Tnnc1 transcript Fold Change", "value": 2.09}, {"measurement": "Tsku transcript Fold Change", "value": 2.15}, {"measurement": "Ubqln2 transcript Fold Change", "value": -2.65}, {"measurement": "Uhrf1 transcript Fold Change", "value": -2.03}, {"measurement": "Upp2 transcript Fold Change", "value": 2.5}, {"measurement": "Usp2 transcript Fold Change", "value": 3.94}, {"measurement": "Wrn transcript Fold Change", "value": 3.79}, {"measurement": "Zfp101 transcript Fold Change", "value": -2.1}, {"measurement": "Zfp445 transcript Fold Change", "value": 2.82}]}
